Results on 3 compounds are retold here after US11089783B2, “2-(het)aryl-substituted fused heterocycle derivatives as pesticides” (Bayer Aktiengesellschaft, priority 2017, dated 2021).

Holding throughout (format): in vivo
Experiment [1] relates to Diabrotica balteata. The experiment is described as follows: Diabrotica balteata drench test (DIABBA). The conditions noted are these: soil, 192 h, 8 dat, read-out: % efficacy. On the procedure:
[table] To produce an appropriate active ingredient formulation, 1 part by weight of active ingredient is mixed with the specified amounts of solvent and emulsifier and the concentrate is diluted to the desired concentration with water, it being necessary to take into account the volume of soil into which drenching is effected. It should be ensured that a concentration of 40 ppm of emulsifier in the soil is not exceeded. For production of further test concentrations, the mixture is diluted with water. 5 maize kernels in each case are sown into soil-filled pots (Zea mays) and, the next day, drenched with the active ingredient formulation of the desired concentration. After one day, about 25 L2 larvae of the banded cucumber beetle (Diabrotica balteata) were added. After 8 days, the efficacy in % is determined. 100% means that all 5 plants have germinated and grown; 0% means that no plant has emerged.

Experiment [2] has as its system Myzus persicae. Briefly: Myzus persicae drench test (MYZUPE D), savoy cabbage plants. As to conditions: soil, 240 h, 0.16 ppm, 10 dat, read-out: % efficacy. On the procedure:
[table] To produce an appropriate active ingredient formulation, 1 part by weight of active ingredient is mixed with the specified amounts of solvent and emulsifier and the concentrate is diluted to the desired concentration with water, it being necessary to take into account the volume of soil into which drenching is effected. It should be ensured that a concentration of 40 ppm of emulsifier in the soil is not exceeded. For production of further test concentrations, the mixture is diluted with water. Savoy cabbage plants (Brassica oleracea) in soil pots, infested by all stages of the green peach aphid (Myzus persicae), are drenched with an active ingredient formulation of the desired concentration. After the desired time, the efficacy in % is determined. 100% means that all the aphids have been killed; 0% means that no aphids have been killed.

The subject of experiment [3] is Nilaparvata lugens. The experiment is described as follows: Nilaparvata lugens spray test (NILALU). As to conditions: Nilaparvata lugens, 96 h, 4 g/ha, 4 dat, read-out: % efficacy. An outline of the steps:
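Rice plants (Oryza sativa) sprayed with compound formulated in solvent and water with 1000 ppm emulsifier, ammonium salts/penetrants at 1000 ppm if needed, then infested with brown planthopper larvae. After the set time, efficacy scored as % planthoppers killed (100% all, 0% none).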

`CCS(=O)(=O)c1ccc(NC(=O)NC)nc1-c1nc2cc(C(F)(F)C(F)(F)F)nnc2n1C` [Example I-08, 1-{5-(ethylsulfonyl)-6-[7-methyl-3-(pentafluoroethyl)-7H-imidazo[4,5-c]pyridazin-6-yl]pyridin-2-yl}-3-methylurea]: the Emax at 20 ppm in experiment [1] was 100%.

For `CCS(=O)(=O)c1ccc(N(C)C(=O)NC)nc1-c1nc2cc(C(F)(F)C(F)(F)F)nnc2n1C` [Example I-09], in experiment [2], the Emax at 0.16 ppm worked out at 99%.

In the case of `CCS(=O)(=O)c1ccc(NC(=O)N(C)C)nc1-c1nc2cc(C(F)(F)C(F)(F)F)nnc2n1C` [Example I-10], the Emax at 4 g/ha in experiment [3] came to 90%.
